# Reference: patent publication US20240148821A1, “PHARMACEUTICAL USE OF CYCLIC PEPTIDE COMPOUND” (CHUGAI SEIYAKU KABUSHIKI KAISHA, priority 2021, published 2024)
# Bridge positions count the residues as written; N and C are the ends. Square brackets hold non-standard residues; d marks the D form. Peptide text beside a SMILES is read from it. * marks the point of attachment. hPhe(3-Cl-4-CF3) = N[C@@H](CCc1ccc(C(F)(F)F)c(Cl)c1)C(=O)O; hPhe(3-F,4-CF3) = N[C@@H](CCc1ccc(C(F)(F)F)c(F)c1)C(=O)O; NMePhe(4-Cl) = CN[C@@H](Cc1ccc(Cl)cc1)C(=O)O; NMePhe(4-Me) = CN[C@@H](Cc1ccc(C)cc1)C(=O)O; Oic = O=C(O)[C@@H]1C[C@@H]2CCCC[C@@H]2N1; NMeGly(cPent) = CN[C@H](C(=O)O)C1CCCC1; Phe(3-I) = N[C@@H](Cc1cccc(I)c1)C(=O)O; Met(O2) = CS(=O)(=O)CC[C@H](N)C(=O)O; NMeCha = CN[C@@H](CC1CCCCC1)C(=O)O; NMehLeu = CN[C@@H](CCC(C)C)C(=O)O; NMeChg = CN[C@H](C(=O)O)C1CCCCC1; NMeD = CN[C@@H](CC(=O)O)C(=O)O; NMeL = CN[C@@H](CC(C)C)C(=O)O; Chg = N[C@H](C(=O)O)C1CCCCC1; NMePra = C#CC[C@H](NC)C(=O)O; NMeV = CN[C@H](C(=O)O)C(C)C; d(β3hA) = C[C@@H](N)CC(=O)O; N(iPr)Gly = CC(C)NCC(=O)O; NMeAib = CNC(C)(C)C(=O)O; Piperidide = C1CCN(*)CC1; Pyrrolidide = C1CCN(*)C1; Ac5c = NC1(C(=O)O)CCCC1; Aze = O=C(O)[C@@H]1CCN1; Sar = CNCC(=O)O
# System: Human pancreatic cancer cell line AsPC-1 (G12D mutation Kras)
# Experiment: AsPC-1 cell growth inhibition (AsPC-1 CGI)
# Assay type: cell-based
# Conditions: read-out: AsPC-1 cell growth inhibition, 50% growth inhibitory concentration (IC50 value); 96 hours, CellTiter-Glo, values classified in ranges
# Description: Test compounds were serially dilated with dimethyl sulfoxide, and 200 nL was then dispensed to a U-bottom 96-well plate using Labcyte Echo. […] The cell suspension was dispensed to a. plate containing a test compound at 100 μL per well and incubated at 37° C. in a 5% carbon dioxide gas incubator. 96 hours later, 80 μL of CellTiter-Glo (Promega) was added to each well and fluorescence was measured.
row,Structure (SMILES),IC50 [µM]
1,CC[C@H](C)[C@@H]1NC(=O)[C@H](CC(C)C)N(C)C(=O)C[C@@H](C(=O)N2CCCCC2)N(C)C(=O)[C@H](C2CCCCC2)N(C)C(=O)C2(CCCC2)NC(=O)[C@@H](C)NC(=O)[C@H](CCc2ccc(C(F)(F)F)c(Cl)c2)NC(=O)CN(C)C(=O)[C@H](CC2CCCCC2)N(C)C(=O)CN(C)C(=O)CN(C)C1=O [Compound 277] ([NMeL]I[Sar][Sar][NMeCha][Sar][hPhe(3-Cl-4-CF3)][dA][Ac5c][NMeChg][NMeD]-Piperidide; lactam N-11),> 0.5
2,CC(C)C[C@H]1C(=O)N[C@@H](C2CCCCC2)C(=O)N(C)CC(=O)N(C)CC(=O)N(C)[C@@H](CC2CCCCC2)C(=O)N(C)CC(=O)N[C@@H](CCc2ccc(C(F)(F)F)c(Cl)c2)C(=O)N2CCC[C@H]2C(=O)NC2(CCCC2)C(=O)N(C)[C@@H](C(C)C)C(=O)N(C)[C@H](C(=O)N2CCCCC2)CC(=O)N1C [Compound 281] ([NMeL][Chg][Sar][Sar][NMeCha][Sar][hPhe(3-Cl-4-CF3)]P[Ac5c][NMeV][NMeD]-Piperidide; lactam N-11),> 0.5
3,CC(C)C[C@H]1C(=O)N[C@@H](CCS(C)(=O)=O)C(=O)N(C)CC(=O)N(C)CC(=O)N(C)[C@@H](CC2CCCCC2)C(=O)N(C)CC(=O)N[C@@H](CCc2ccc(C(F)(F)F)c(Cl)c2)C(=O)N2CCC[C@H]2C(=O)NC2(CCCC2)C(=O)N(C)[C@@H](C2CCCCC2)C(=O)N(C)[C@H](C(=O)N2CCCCC2)CC(=O)N1C [Compound 283] ([NMeL][Met(O2)][Sar][Sar][NMeCha][Sar][hPhe(3-Cl-4-CF3)]P[Ac5c][NMeChg][NMeD]-Piperidide; lactam N-11),> 0.5
4,C#CC[C@H]1C(=O)N(C)[C@H](C(=O)N2CCCCC2)CC(=O)N(C)[C@@H](CC(C)C)C(=O)N[C@@H]([C@@H](C)CC)C(=O)N(C)CC(=O)N(C)CC(=O)N(C)[C@@H](CC2CCCCC2)C(=O)N(C)CC(=O)N[C@@H](CCc2ccc(C(F)(F)F)c(Cl)c2)C(=O)N2CCC[C@H]2C(=O)NC2(CCCC2)C(=O)N1C [Compound 284] ([NMeL]I[Sar][Sar][NMeCha][Sar][hPhe(3-Cl-4-CF3)]P[Ac5c][NMePra][NMeD]-Piperidide; lactam N-11),> 0.5
5,CC[C@H](C)[C@@H]1NC(=O)[C@H](CC(C)C)N(C)C(=O)C[C@@H](C(=O)N2CCCCC2)N(C)C(=O)[C@H](CC(C)C)NC(=O)C(C)(C)N(C)C(=O)[C@H](CC(C)C)NC(=O)[C@H](Cc2cccc(I)c2)NC(=O)CN(C)C(=O)[C@H](Cc2ccc(Cl)cc2)N(C)C(=O)CN(C)C(=O)CN(C)C1=O [Compound 295] ([NMeL]I[Sar][Sar][NMePhe(4-Cl)][Sar][Phe(3-I)]L[NMeAib]L[NMeD]-Piperidide; lactam N-11),> 0.5
6,CC[C@H](C)[C@@H]1NC(=O)[C@H](CC(C)C)N(C)C(=O)C[C@@H](C(=O)N2CCCCC2)N(C)C(=O)[C@H](C2CCCCC2)N(C)C(=O)C2(CCCC2)NC(=O)[C@@H]2C[C@@H]3CCCC[C@@H]3N2C(=O)[C@H](CCc2ccc(C(F)(F)F)c(Cl)c2)NC(=O)CN(C)C(=O)[C@H](CC2CCCCC2)N(C)C(=O)CN(C)C(=O)CN(C)C1=O [Compound 297] ([NMeL]I[Sar][Sar][NMeCha][Sar][hPhe(3-Cl-4-CF3)][Oic][Ac5c][NMeChg][NMeD]-Piperidide; lactam N-11),> 0.5
7,"CC[C@H](C)[C@@H]1NC(=O)[C@H](CC(C)C)N(C)C(=O)C[C@@H](C(=O)N2CCCCC2)NC(=O)[C@H](CC(C)C)N(C)C(=O)C2(CCCC2)NC(=O)[C@@H]2CCCN2C(=O)[C@H](CCc2ccc(C(F)(F)F)c(F)c2)NC(=O)CN(C)C(=O)[C@H](CC2CCCCC2)N(C)C(=O)CN(C)C(=O)CN(C)C1=O [Compound 298] ([NMeL]I[Sar][Sar][NMeCha][Sar][hPhe(3-F,4-CF3)]P[Ac5c][NMeL]D-Piperidide; lactam N-11)",> 0.5
8,CC[C@H](C)[C@@H]1NC(=O)[C@H](CCC(C)C)N(C)C(=O)C[C@@H](C(=O)N(C)C)N(C)C(=O)[C@H](C2CCCC2)N(C)C(=O)C2(CCCC2)NC(=O)[C@@H]2CCCN2C(=O)[C@H](CCc2ccc(C(F)(F)F)c(Cl)c2)NC(=O)CN(C)C(=O)[C@H](Cc2ccc(C)cc2)N(C)C(=O)[C@@H]2CCN2C(=O)[C@H](C)NC1=O [Compound 303] ([NMehLeu]IA[Aze][NMePhe(4-Me)][Sar][hPhe(3-Cl-4-CF3)]P[Ac5c][NMeGly(cPent)][NMeD]-NMe2; lactam N-11),≤ 0.02
9,CC[C@H](C)[C@@H]1NC(=O)[C@H](CC(C)C)N(C)C(=O)C[C@@H](C)NC(=O)[C@H](C(C)C)N(C)C(=O)C2(CCCC2)NC(=O)[C@@H]2CCCN2C(=O)[C@H](CCc2ccc(C(F)(F)F)c(Cl)c2)NC(=O)CN(C)C(=O)[C@H](CC2CCCCC2)N(C)C(=O)CN(C)C(=O)CN(C(C)C)C1=O [Compound 305] (cyclo([Ac5c][NMeV][d(β3hA)][NMeL]I[N(iPr)Gly][Sar][NMeCha][Sar][hPhe(3-Cl-4-CF3)]P)),> 0.5
10,"CC[C@H](C)[C@@H]1NC(=O)[C@H](CC(C)C)N(C)C(=O)C[C@@H](C(=O)N2CCCC2)N(C)C(=O)[C@H](CC(C)C)NC(=O)C(C)(C)N(C)C(=O)[C@H](CC(C)C)NC(=O)[C@H](CCc2ccc(C(F)(F)F)c(F)c2)NC(=O)CN(C)C(=O)[C@H](CC2CCCCC2)N(C)C(=O)CN(C)C(=O)CN(C)C1=O [Compound 312] ([NMeL]I[Sar][Sar][NMeCha][Sar][hPhe(3-F,4-CF3)]L[NMeAib]L[NMeD]-Pyrrolidide; lactam N-11)",> 0.5
